{
  "source": "paper PMC5740082",
  "about": "“Identification of a CARM1 Inhibitor with Potent In Vitro and In Vivo Activity in Preclinical Models of Multiple Myeloma” (Scientific Reports, 2017)",
  "key": {"VCAP": {"test_system": "VCAP", "test": "Long term proliferation assay (15 days)", "assay_type": "cell-based", "details": "Homo sapiens, 360 h, read-out: EZM2302 IC50 (absolute, long term proliferation), PROSTATE, day 15", "procedure": "(§1) Long term (14–15 day) cell proliferation assays were performed using the method previously described with adjustments to initial seeding densities depending on growth characteristics for each cell line[54],[55]. For 6 day proliferation studies, see Supplementary Methods.\n(§2) Supplementary Table S2. Long term proliferation IC50 values of cell lines dosed with EZM2302. A panel of cell lines was treated with EZM2302fo r 15 da ys in a long term proliferation assa y. Abs olute IC 50 values were calculated in GraphPad Pri sm (non -linear regression anal ysis, top of the curves were fixed to 100%) for each line at d ay 15 ."}, "PC3": {"test_system": "PC3", "test": "Long term proliferation assay (15 days)", "assay_type": "cell-based", "details": "Homo sapiens, PC-3, 360 h, read-out: EZM2302 IC50 (absolute, long term proliferation); PC3, PROSTATE, day 15", "procedure": "as §1, §2"}, "MCF7": {"test_system": "MCF7", "test": "Long term proliferation assay (15 days)", "assay_type": "cell-based", "details": "Homo sapiens, 360 h, read-out: EZM2302 IC50 (absolute, long term proliferation); MCF7, BREAST, day 15", "procedure": "as §1, §2"}, "LNCAP": {"test_system": "LNCAP", "test": "Long term proliferation assay (15 days)", "assay_type": "cell-based", "details": "Homo sapiens, 360 h, read-out: EZM2302 IC50 (absolute, long term proliferation), PROSTATE, day 15", "procedure": "as §1, §2"}, "HCT116": {"test_system": "HCT116", "test": "Long term proliferation assay (15 days)", "assay_type": "cell-based", "details": "Homo sapiens, HCT-116, 360 h, read-out: EZM2302 IC50 (absolute, long term proliferation); HCT116, LARGE, day 15", "procedure": "as §1, §2"}, "BT20": {"test_system": "BT20", "test": "Long term proliferation assay (15 days)", "assay_type": "cell-based", "details": "Homo sapiens, BT-20, 360 h, read-out: EZM2302 IC50 (absolute, long term proliferation); BT20, BREAST, day 15", "procedure": "as §1, §2"}, "BT474": {"test_system": "BT474", "test": "Long term proliferation assay (15 days)", "assay_type": "cell-based", "details": "Homo sapiens, BT-474, 360 h, read-out: EZM2302 IC50 (absolute, long term proliferation); BT474, BREAST, day 15", "procedure": "as §1, §2"}, "HT29": {"test_system": "HT29", "test": "Long term proliferation assay (15 days)", "assay_type": "cell-based", "details": "Homo sapiens, HT-29, 360 h, read-out: EZM2302 IC50 (absolute, long term proliferation); HT29, LARGE, day 15", "procedure": "as §1, §2"}, "[1]": {"test": "Pharmacokinetic study in mouse", "experimental": "(§7) An additional group of rats, cannulated in both the jugular and portal veins were dosed by oral gavage (10 mg/kg, in 0.5% methylcellulose in water). Approximately 110 μL of blood was taken from the animals by retro-orbital bleeding (mouse), tail vein (rat i.v.) or both jugular and portal vein sampling (rat p.o.) at pre-specified time intervals. The 2 h samples were split for parallel determination of blood and plasma concentration (ex vivo ratio). Blood samples were collected into K2-EDTA tubes and centrifuged to obtain plasma."}, "[2]": {"test_system": "PABP1 and SmB methylation in NCI-H929 cells", "test": "Western blot of cellular methyl marks, NCI-H929", "details": "Homo sapiens, NCI-H929, 96 h", "experimental": "Methylation changes were measured at the well-characterized CARM1 substrates PABP1 and SmB[1],[10]. Changes in overall levels of asymmetric dimethyl arginine (aDMA) were assessed with an antibody that detects a generic aDMA motif. Levels of methylated analytes were quantified by densitometry and ratios of methylated to total protein were calculated to determine the cell biochemical IC50 values.\nCultured cells in linear/log phase growth were split to a seeding density of 2e5 cells/mL in 2–20mLs of media, depending on the yield required at the end of the growth period. Compound was diluted in DMSO and added to each culture vessel with a final DMSO concentration of 0.2%. Cells were allowed to grow for 96 hours. At the conclusion of each treatment period, cells were harvested by centrifugation (5 minutes, 1200 rpm), and cell pellets were rinsed once with PBS before being frozen on dry ice pending further processing.\nQuantification of Western blots was performed using infra-red emitting secondary antibodies and detection with an ODYSSEY infrared imaging system."}, "[3]": {"test": "Pharmacokinetic study in rat", "experimental": "as §7"}, "CYP3A4": {"target": "T1, CYP3A4 (Homo sapiens, UniProt P08684)", "T1 construct": "with human liver microsomes; from tissue; host or cells: human liver microsomes", "T1 sequence (P08684 whole entry)": "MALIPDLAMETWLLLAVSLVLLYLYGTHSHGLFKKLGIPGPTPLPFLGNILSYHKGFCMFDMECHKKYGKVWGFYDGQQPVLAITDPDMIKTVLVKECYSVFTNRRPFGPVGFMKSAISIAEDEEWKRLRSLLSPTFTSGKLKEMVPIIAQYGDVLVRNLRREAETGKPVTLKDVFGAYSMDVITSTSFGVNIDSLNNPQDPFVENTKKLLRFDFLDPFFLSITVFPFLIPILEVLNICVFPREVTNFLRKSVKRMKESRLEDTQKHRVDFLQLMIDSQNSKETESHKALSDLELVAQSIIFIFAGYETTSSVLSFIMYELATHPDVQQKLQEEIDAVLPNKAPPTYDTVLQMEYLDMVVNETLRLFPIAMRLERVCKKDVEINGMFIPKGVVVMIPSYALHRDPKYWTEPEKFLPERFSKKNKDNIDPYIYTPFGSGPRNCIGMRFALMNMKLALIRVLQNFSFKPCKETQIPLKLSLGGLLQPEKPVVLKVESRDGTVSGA", "test": "Cytochrome P450 inhibition", "assay_type": "in vitro ADME", "details": "human liver microsomes, tested up to 25 µM", "procedure": "(§3) Hepatocyte stability, plasma protein binding and cytochrome P450 assays were performed using standard procedures. Details can be found in Supplementary Methods. […]\n(§4) Cytochrome P450 Inhibition (IC50 Determination) […]\n(§5) with human liver microsomes (0.1 to 1 mg/m L) and NADPH (1 mM) in the presence of specific probe substrates at 37°C. Probe substrates and incubation times were: phenacetin (30 µM, 5 min), tolbutamide (120 µM, 60 min), mephenytoi n (25 µM, 60 min) and dextromethorphan (5 µM, 5 min) for CYP1A2, CYP2C9, CYP2C19 and CYP2D6, respectivel y. For CYP3A4, midazolam (2.5 µM, 5 min) andtestosterone (50 µM, 5 min) were used as probe substrates. […]\n(§6) isoform. All reactions were terminated b y addition of methanol prior to cent rifugation and addition of internal standard to the supernatants. For CYP2C9, CYP2C19, CYP2D6 and CYP3A4 (midazolam) incubations, the supernat ants were combined for the simultaneous anal ysis o f 4-h ydrox ytol butamide, 4- hydrox ymephenytoin, dextrorphan and 1-hydrox ymidazolam b y LC-MS/MS. For the CYP1A2 and CYP3A4 (testosterone) incubations, the supernatants were anal yzed individuall y for acetaminophen and 6ß-h ydrox ytestosterone b y LC -MS/MS. A decrease i n the formation of the metabolites compared to vehicle control was used to calculate an IC50 value."}, "CYP1A2": {"target": "T2, CYP1A2 (Homo sapiens, UniProt P05177)", "T2 construct": "with human liver microsomes; from tissue; host or cells: human liver microsomes", "T2 sequence (P05177 whole entry)": "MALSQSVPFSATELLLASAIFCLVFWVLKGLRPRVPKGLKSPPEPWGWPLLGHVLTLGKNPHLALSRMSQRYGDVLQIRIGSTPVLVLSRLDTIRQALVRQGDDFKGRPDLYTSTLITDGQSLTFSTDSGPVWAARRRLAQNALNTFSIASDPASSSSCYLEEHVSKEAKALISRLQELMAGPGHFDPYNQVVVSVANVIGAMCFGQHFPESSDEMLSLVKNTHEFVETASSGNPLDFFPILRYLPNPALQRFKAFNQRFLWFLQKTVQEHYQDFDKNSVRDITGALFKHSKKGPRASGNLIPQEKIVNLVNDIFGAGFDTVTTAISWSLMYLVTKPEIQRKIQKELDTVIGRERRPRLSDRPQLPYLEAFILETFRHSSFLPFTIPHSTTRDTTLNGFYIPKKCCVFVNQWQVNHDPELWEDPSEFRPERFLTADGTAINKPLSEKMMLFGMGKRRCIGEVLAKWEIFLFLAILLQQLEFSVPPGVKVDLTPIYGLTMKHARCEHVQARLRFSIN", "test": "Cytochrome P450 inhibition", "assay_type": "in vitro ADME", "details": "human liver microsomes, tested up to 25 µM", "procedure": "as §3, §4, §5, §6"}, "CYP2C19": {"target": "T3, CYP2C19 (Homo sapiens, UniProt P33261)", "T3 construct": "with human liver microsomes; from tissue; host or cells: human liver microsomes", "T3 sequence (P33261 whole entry)": "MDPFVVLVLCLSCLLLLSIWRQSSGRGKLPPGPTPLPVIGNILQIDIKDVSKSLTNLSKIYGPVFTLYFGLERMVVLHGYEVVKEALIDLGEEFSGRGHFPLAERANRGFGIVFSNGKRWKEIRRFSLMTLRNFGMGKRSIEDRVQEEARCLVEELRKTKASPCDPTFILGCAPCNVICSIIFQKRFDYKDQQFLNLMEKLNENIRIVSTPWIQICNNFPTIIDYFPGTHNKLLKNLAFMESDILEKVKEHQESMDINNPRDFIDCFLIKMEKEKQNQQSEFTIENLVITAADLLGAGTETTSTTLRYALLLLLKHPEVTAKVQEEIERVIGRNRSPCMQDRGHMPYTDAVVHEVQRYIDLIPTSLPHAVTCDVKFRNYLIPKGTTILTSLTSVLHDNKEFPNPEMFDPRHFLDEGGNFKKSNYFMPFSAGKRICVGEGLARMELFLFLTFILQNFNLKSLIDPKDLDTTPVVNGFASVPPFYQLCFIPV", "test": "Cytochrome P450 inhibition", "assay_type": "in vitro ADME", "details": "human liver microsomes, tested up to 25 µM", "procedure": "as §3, §4, §5, §6"}, "CYP2C9": {"target": "T4, CYP2C9 (Homo sapiens, UniProt P11712)", "T4 construct": "with human liver microsomes; from tissue; host or cells: human liver microsomes", "T4 sequence (P11712 whole entry)": "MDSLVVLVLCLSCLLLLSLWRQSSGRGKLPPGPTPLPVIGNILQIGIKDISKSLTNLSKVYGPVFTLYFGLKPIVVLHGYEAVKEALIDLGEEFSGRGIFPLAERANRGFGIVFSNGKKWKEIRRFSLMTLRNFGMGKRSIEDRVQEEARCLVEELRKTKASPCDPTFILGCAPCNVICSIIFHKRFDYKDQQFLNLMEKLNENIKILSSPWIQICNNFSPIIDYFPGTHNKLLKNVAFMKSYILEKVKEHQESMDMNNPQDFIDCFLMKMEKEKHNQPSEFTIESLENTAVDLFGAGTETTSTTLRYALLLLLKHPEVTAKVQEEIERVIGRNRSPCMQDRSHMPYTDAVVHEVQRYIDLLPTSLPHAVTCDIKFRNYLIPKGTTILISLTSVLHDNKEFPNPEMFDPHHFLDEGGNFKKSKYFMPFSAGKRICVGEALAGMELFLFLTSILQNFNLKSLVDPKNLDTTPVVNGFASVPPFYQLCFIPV", "test": "Cytochrome P450 inhibition", "assay_type": "in vitro ADME", "details": "human liver microsomes, tested up to 25 µM", "procedure": "as §3, §4, §5, §6"}, "CYP2D6": {"target": "T5, CYP2D6 (Homo sapiens, UniProt P10635)", "T5 construct": "with human liver microsomes; from tissue; host or cells: human liver microsomes", "T5 sequence (P10635 whole entry)": "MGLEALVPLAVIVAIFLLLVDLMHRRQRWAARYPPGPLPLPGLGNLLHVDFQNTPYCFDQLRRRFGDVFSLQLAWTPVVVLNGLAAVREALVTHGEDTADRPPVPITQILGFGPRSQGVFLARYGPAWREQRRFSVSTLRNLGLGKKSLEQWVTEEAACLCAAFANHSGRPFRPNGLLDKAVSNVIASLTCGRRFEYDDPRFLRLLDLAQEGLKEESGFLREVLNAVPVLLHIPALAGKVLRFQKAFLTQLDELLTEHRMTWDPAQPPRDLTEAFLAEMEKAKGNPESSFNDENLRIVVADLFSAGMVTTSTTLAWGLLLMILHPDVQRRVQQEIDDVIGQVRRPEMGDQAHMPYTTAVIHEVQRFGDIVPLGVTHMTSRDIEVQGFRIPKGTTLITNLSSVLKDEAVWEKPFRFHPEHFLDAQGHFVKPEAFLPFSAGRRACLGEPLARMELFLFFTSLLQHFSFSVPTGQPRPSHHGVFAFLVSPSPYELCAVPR", "test": "Cytochrome P450 inhibition", "assay_type": "in vitro ADME", "details": "human liver microsomes, tested up to 25 µM", "procedure": "as §3, §4, §5, §6"}, "[4]": {"details": "male, CD-1, mouse, plasma, iv, 2 mg/kg"}, "[5]": {"details": "male, CD-1, mouse, plasma, po, 10 mg/kg"}, "[6]": {"details": "Sprague-Dawley, rat, plasma, po, 10 mg/kg"}, "[7]": {"details": "male, Sprague-Dawley, rat, plasma, iv, 2 mg/kg"}},
  "note": "Values joined by “and” are separate entries in the source; they are usually repeats but may differ in a detail not shown here. Identical values can stand only once. Like-named read-outs stand apart in the source and are kept apart here.",
  "data": [
    {"molecule": "CNC[C@@H](O)COc1ccc(Cl)c(-c2nc(-c3c(C)noc3C)c(C)c(N3CC4(CCN(C(=O)OC)CC4)C3)n2)c1", "note": "[EZM2302]", "values": [
      {"measurement": "IC50", "setting": "VCAP", "value": "> 20", "unit": "µM"},
      {"measurement": "IC50", "setting": "PC3", "value": "> 20", "unit": "µM"},
      {"measurement": "IC50", "setting": "MCF7", "value": "> 20", "unit": "µM"},
      {"measurement": "IC50", "setting": "LNCAP", "value": 12.2, "unit": "µM"},
      {"measurement": "IC50", "setting": "HCT116", "value": "> 20", "unit": "µM"},
      {"measurement": "IC50", "setting": "BT20", "value": "> 20", "unit": "µM"},
      {"measurement": "IC50", "setting": "BT474", "value": "> 20", "unit": "µM"},
      {"measurement": "IC50", "setting": "HT29", "value": "> 20", "unit": "µM"},
      {"measurement": "CL (plasma clearance)", "setting": "[1]; CD-1 mouse, IV Bolus 2 mg/kg, 2 mg/kg", "value": 43.2, "unit": "mL/min/kg"},
      {"measurement": "AUC(0-inf)", "setting": "[1]; [4]", "value": 772, "unit": "ng·h/mL"},
      {"measurement": "AUC(0-t)", "setting": "[1]; [4]", "value": 767, "unit": "ng·h/mL"},
      {"measurement": "Vd", "setting": "[1]; [4]", "value": 6.53, "unit": "L/kg"},
      {"measurement": "half-life", "setting": "[1]; [4]", "value": 253, "unit": "min"},
      {"measurement": "clearance", "setting": "[1]; male, CD-1, mouse, plasma, iv, 2 mg/kg, CL (plasma clearance), IV Bolus 2 mg/kg", "value": 43, "unit": "mL/min/kg"},
      {"measurement": "AUC(0-inf)", "setting": "[1]; [5]", "value": 577, "unit": "ng·h/mL"},
      {"measurement": "AUC(0-t)", "setting": "[1]; [5]", "value": 568, "unit": "ng·h/mL"},
      {"measurement": "Cmax", "setting": "[1]; [5]", "value": 177, "unit": "ng/mL"},
      {"measurement": "Tmax", "setting": "[1]; [5]", "value": 2, "unit": "h"},
      {"measurement": "bioavailability", "setting": "[1]; [5]", "value": 15, "unit": "%"},
      {"measurement": "half-life", "setting": "[1]; [5]", "value": 273, "unit": "min"},
      {"measurement": "IC50", "setting": "[2]; read-out: IC50, PABP1me2a", "value": 9, "unit": "nM"},
      {"measurement": "IC50", "setting": "[2]; read-out: IC50, SmBme0", "value": 31, "unit": "nM"},
      {"measurement": "CL (plasma clearance)", "setting": "[3]; Sprague-Dawley rat, IV Bolus 2 mg/kg, 2 mg/kg", "value": "90.5 ± 10.5", "unit": "mL/min/kg"},
      {"measurement": "Fa*Fg (fraction of the dose absorbed from the gastro-intestinal tract)", "setting": "[3]; Sprague-Dawley rat, PO 10 mg/kg, JVC-PVC rat PK experiment, 10 mg/kg", "value": "81% and 80.7%"},
      {"measurement": "AUC(0-inf)", "setting": "[3]; [6]", "value": "487 ± 102", "unit": "ng·h/mL"},
      {"measurement": "AUC(0-t)", "setting": "[3]; [6]", "value": "453 ± 89.3", "unit": "ng·h/mL"},
      {"measurement": "Cmax", "setting": "[3]; [6]", "value": "113 ± 22.4", "unit": "ng/mL"},
      {"measurement": "Tmax", "setting": "[3]; [6]", "value": 2, "unit": "h"},
      {"measurement": "bioavailability", "setting": "[3]; [6]", "value": "26.2 ± 5.45", "unit": "%"},
      {"measurement": "half-life", "setting": "[3]; [6]", "value": "398 ± 84.6", "unit": "min"},
      {"measurement": "AUC(0-inf)", "setting": "[3]; [7]", "value": "372 ± 43.3", "unit": "ng·h/mL"},
      {"measurement": "AUC(0-t)", "setting": "[3]; [7]", "value": "352 ± 30.6", "unit": "ng·h/mL"},
      {"measurement": "Vd", "setting": "[3]; [7]", "value": "35.6 ± 1.3", "unit": "L/kg"},
      {"measurement": "half-life", "setting": "[3]; [7]", "value": "373 ± 99", "unit": "min"},
      {"measurement": "clearance", "setting": "[3]; male, Sprague-Dawley, rat, plasma, iv, 2 mg/kg, CL (plasma clearance), Sprague-Dawley rat, IV Bolus 2 mg/kg", "value": 91, "unit": "mL/min/kg"},
      {"measurement": "CYP3A4 inhibition", "setting": "CYP3A4", "value": "did not inhibit"},
      {"measurement": "CYP1A2 inhibition", "setting": "CYP1A2", "value": "did not inhibit"},
      {"measurement": "CYP2C19 inhibition", "setting": "CYP2C19", "value": "did not inhibit"},
      {"measurement": "CYP2C9 inhibition", "setting": "CYP2C9", "value": "did not inhibit"},
      {"measurement": "CYP2D6 inhibition", "setting": "CYP2D6", "value": "did not inhibit"}
    ]}
  ]
}
